In US7687546B2, “Quaternary ammonium compound, process for producing the same, therapeutic agent for cerebrovascular disorder, and therapeutic agent for heart disease” (Activus Pharma Co., Ltd., priority 2004, dated 2010):

What was measured:
[1] = test system: model of myocardial ischemia reperfusion injury; assay: Model of myocardial ischemia-reperfusion injury in dogs; assay type: in vivo; details: 3 mg/kg into the femoral vein 10 minutes before 20 minutes coronary occlusion, then reperfusion
Description: In order to confirm the efficacy of compounds of the present invention on myocardial infarction and arrhythmia caused by myocardial infarction, a pharmacological study was conducted using a model of myocardial ischemia reperfusion injury in dogs for the compounds used in Example 1.
Dogs having body weights of approximately 10 kg were anesthetized with pentobarbital (trade name) (30 mg/ml/kg) followed by shaving the surgical site after starting artificial respiration. The femoral vein and femoral artery were separated followed by cannulation. The femoral vein was used as the administration route for the test substances, while the femoral artery was used to measure blood pressure.
Next, after opening the left chest, making an incision in the pericardium and exposing the left ventricle, the left coronary artery was separated. A silk suture was passed through the coronary artery to occlude, followed by the attachment of an electromagnetic flow meter probe for measuring blood flow.
In addition, a pair of ultrasound crystal probes was fixed in position to measure changes in ventricular wall length as a indicator of myocardial contractile force, and indwelling needle was installed for measuring left intraventricular pressure. Compounds of the present invention were administered into the femoral vein at 3 mg/kg (15% physiological saline solution) followed 10 minutes later by occluding the coronary artery for 20 minutes, and subsequently reperfusing the coronary artery. Myocardial contraction following ischemia-reperfusion was compared for each group based on a value of 100 for myocardial contraction prior to ischemic reperfusion. In addition, comparisons were also made with a solvent control group administered only physiological saline.

guinea pigs = assay: Study of arrhythmia-inducing action in guinea pigs (without ouabain); details: no ouabain
[2] = test system: model of myocardial ischemia-reperfusion injury; assay: Model of myocardial ischemia-reperfusion injury in rats; assay type: in vivo; details: 3 mg/kg i.v. 5 minutes before 5 minutes coronary ligation, 8 rats per group; for Incidence of Ventricular Fibrillation (%) / Incidence of Ventricular Tachycardia (%): monitored 5 minutes after reperfusion; for Mortality Rate (%): then reperfusion
[3] = test system: middle cerebral artery occlusion and reperfusion model; assay: Cerebral infarction model: middle cerebral artery occlusion and reperfusion (infarct area, neurological symptoms, motor function); assay type: in vivo, rats (Crj: Wistar strain); set-up: Improvement of neurological symptoms* (total score): scale not given here; details: rats, average of 10 animals; for Improvement of neurological symptoms* (total score) / Improvement of motor function (time stayed on rotor rod: seconds): single i.v. dose 3 mg/kg; for Improvement of neurological symptoms* (total score): 24 hours after occlusion, total score per Table 4, smaller = greater effect; for Improvement of motor function (time stayed on rotor rod: seconds): rotor rod 14 rotations per minute, maximum 1 minute; for Cerebral infarction reduction rate (%): single intravenous dose 3 mg/kg immediately before reperfusion, vs physiological saline group, bigger = greater effect
Description: In this example, a cerebral infarction model was prepared using rats in which reperfusion injury was induced by ischemia and then reperfusion of the middle cerebral artery using the obturator method. The efficacy of compounds of the present invention following single-dose intravenous administration at dose of 3 mg/kg was evaluated in terms of infarct area, neurological symptoms and motor function.
In addition, Edaravone (trade name, Mitsubishi Pharma Corporation) was used as a reference compound. The compounds of the present invention were stored in a refrigerator under protection from light, while Edaravone (trade name) was stored at room temperature under protection from light.
Compounds of present invention: 2 mL of physiological saline was added directly to tube containing 3 mg aliquots of a compound of the present invention to dissolve and prepare solutions having a concentration of 3 mg/2 mL. These samples were prepared at the time of use.
Edaravone: Since Edaravone is an injectable solution having a concentration of 30 mg/20 mL, the required amounts were divided up and used.
Rats: Crj: Wistar strain, males, age 7 weeks (Charles River Laboratories Japan, Inc.)
The test compounds were administered in a single dose into the tail vein using a 1 mL syringe and 27 G injection needle immediately before the reperfusion.
The rats were anesthetized by intraperitoneal administration of sodium pentobarbital at dose of 40 mg/kg (Nembutal (trade name), Dainippon Pharmaceutical Co., Ltd.), and a middle cerebral artery occlusion and reperfusion model was prepared in accordance with the method of Koizumi et al. (Non-Patent Document 2). Namely, the animals were warmed to 37° C. and held in the dorsal position while breathing spontaneously. A midline cervical incision was made, and then the right external carotid artery and right internal carotid artery were separated without damaging the vagus nerve. The right common carotid artery and right external carotid artery were ligated, and a suture was attached to the origin of the internal carotid artery in preparation for ligation and maintenance of occlusion following insertion of an obturator into the internal carotid artery. Moreover, a small incision was made in the right common carotid artery, an obturator provided with an approximately 17 mm silicon-coated suture was inserted into the internal carotid artery, and the internal carotid artery was ligated. Two hours after ligation, the obturator was removed under unanesthesia to reperfuse. Furthermore, flexion of the contralateral forelimb was confirmed 30 minutes after occlusion of the middle cerebral artery.
The following neurological symptoms were evaluated 24 hours after occlusion of the middle cerebral artery according to the evaluation method of Petullo et al. (Non-Patent Document 3). Neurological symptoms consisted of flexion of the forelimbs, torso twisting, resistance when pushing on the back of the right or left shoulder (Lateral push), circling, return of the hindlimb to the floor when lifted from the floor (Hindlimb placement), behavior when the head is faced downward on an angle (Inverted angle board) and a locomotor activity test.
Flexion of the forelimbs: flexion of the forelimbs was observed when the animals were lifted up by the tail.
Torso twisting: Torso twisting was observed when the animals were lifted up by the tail.
Lateral push: Resistance was observed when pushing on the back of the right or left shoulder.
Hindlimb placement: The animals were observed as to whether or not the hindlimb immediately returns to the floor after being lifted from the floor when placed on a horizontal floor.
locomotor activity: locomotor activity was observed when the animals were placed in a polycarbonate cage.
The aforementioned tests were scored based on the criteria described in the following documents, followed by calculation of total scores (see Table 4 “Neurological Symptom Evaluation Criteria and Scores”). […]

[4] = test system: ouabain-induced arrhythmia model; assay: Ouabain-induced arrhythmia model in guinea pigs; assay type: in vivo, guinea pigs (Hartley strain); details: dose 3 mg/kg i.v. immediately before ouabain infusion 3 μg/0.1 ml/min
Excerpt: After guinea pigs (Hartley strain, age 6 weeks) were anesthetized with urethane, induction electrodes were attached to the hind limbs and fore limbs, and standard 2-lead electrocardiograms were monitored with an animal electrocardiogram analysis system (ECG-01, Japan Energy). After confirming that the waveforms of the electrocardiogram and heart rate were within the normal range, an incision was made in the epidermis of the neck followed by inserting a breathing tube into the trachea and cannulating a polyethylene tube into the left external jugular vein and left common carotid artery.
Immediately after administering a compound of the present invention dissolved in a physiological saline solution into the right external jugular vein, ouabain was continuously infused at 3 μg/0.1 ml/min through the cannulated polyethylene tube into the left external jugular vein using a syringe pump (Atom Syringe Pump 1235 (trade name), Atom Medical Corporation).
In addition, the polyethylene tube cannulated in the left common carotid artery was connected to a pressure transducer (P23XL, Gould Electronics), and fed to a pressure processor signal conditioner (TA-11, Gould Electronics) to record blood pressure and heart rate on a thermal plate recorder.
The results were assessed by comparing the dose (μg/kg) of ouabain administered until the appearance of arrhythmia and occurrence of cardiac arrest (arrhythmia is not induced even if a large dose of ouabain is administered if antiarrhythmic effects are high). Furthermore, a solvent dose group (administered only physiological saline in an amount equal to that of the test drug groups), and a positive control group administered a typical antiarrhythmic disopyramide phosphate (physiological saline solution), were also provided.

[5] = dose 3 mg/kg, up to 1 hour after administration
[6] = dose 10 mg/kg, up to 1 hour after administration
[7] = dose 3.9 mg/kg, up to 1 hour after administration

| SMILES | Myocardial Contraction (%) (Based on a value of 100% for prior to ischemia-reperfusion) [1] | Occurrence of Arrhythmia (guinea pigs; [5]) | Occurrence of cardiac arrest (guinea pigs; [5]) | Occurrence of Arrhythmia (guinea pigs; [6]) | Occurrence of cardiac arrest (guinea pigs; [6]) | Incidence of Ventricular Fibrillation (%) [2] [%] | Incidence of Ventricular Tachycardia (%) [2] [%] | Mortality Rate (%) [2] [%] | Improvement of neurological symptoms* (total score) [3] | Improvement of motor function (time stayed on rotor rod: seconds) [3] [s] | Cerebral infarction reduction rate (%) [3] [%] | Ouabain (μg/kg) administered until Cardiac arrest [4] [µg/kg] | Ouabain (μg/kg) administered until appearance of Arrhythmia [4] [µg/kg] | Occurrence of Arrhythmia (guinea pigs; [7]) | Occurrence of cardiac arrest (guinea pigs; [7]) | Occurrence of cardiac arrest (guinea pigs; dose 12.9 mg/kg (10 mg/kg as disopyramide)) | Occurrence of cardiac arrest (guinea pigs; dose 12.9 mg/kg (10 mg/kg as disopyramide), listed as disopyramide phosphate) |
| --- | --- | --- | --- | --- | --- | --- | --- | --- | --- | --- | --- | --- | --- | --- | --- | --- | --- |
| C[N+](C)(C)CCOc1ccc(C(=O)[O-])cc1 [Compound 3, 4-(2-trimethylammonio-ethoxy)-benzoate] | 81 | No | No | No | No | 12.5 | 62.5 | 0 | 6.20 | 50.1 | 48.7 | 235 | 169 |  |  |  |  |
| C[N+](C)(C)CCOc1cc(C(=O)O)ccc1O.[Cl-] [Compound 27, [2-(5-carboxy-2-hydroxy-phenoxy)-ethyl]-trimethylammonium Chloride] | 85 | No | No | No | No | 0 | 50.0 | 0 | 6.75 | 47.5 | 53.7 | 258 | 180 |  |  |  |  |
| CC(C)N(CCC(C(N)=O)(c1ccccc1)c1ccccn1)C(C)C (centres unmarked) [Disopyramide phosphate, disopyramide phosphate, reference compound] |  |  |  |  |  |  |  |  |  |  |  | 247 | 175 | No | No | Yes | cardiac arrest occurred immediately after administration |
